One assay deals with Maillard reaction. Put plainly: Inhibitory effect on Maillard reaction in vitro (bovine serum albumin + glucose, fluorescence). It is filed as biochemical. The following applies: test compound 6 mM; bovine serum albumin 100 mg/ml, glucose 200 mM, 0.5 M phosphate buffer pH 7.38, one week at 37°C; fluorescence ex 360 nm / em 450 nm. The protocol:
In order to evaluate the inhibitory effect on Maillard reaction in vitro, of the compounds in the present invention, the measurement was carried out under conditions described below. Bovine serum albumin (100 mg/ml), glucose (200 mM) and test compound (6 mM, 30 mM in example 2 and 2(a)) were dissolved in 0.5 M phosphatic buffer solution (pH 7.38), and the mixture was incubated for a week at 37°C. After incubation, the incubated medium was diluted 100 times with the same phosphatic buffer solution, and the fluorescence spectrum was measured at the excitation maximum of 360nm and the emission maximum of 450 nm. Inhibition percentage of the test compounds was calculated by the following equation: [table]
In the case of `I.N=C(NN)NCc1ccc(F)cc1` [1 (e), 1-amino-3-(4-fluorobenzyl) guanidine hydroiodide], the “Inhibitory effect (%)” value is 43%.
On the same count and under the same terms, the figure for `COc1ccc(CNC(=N)NN)cc1.I` [1 (f), 1-amino-3-(4-methoxybenzyl) guanidine hydroiodide] is 54%; for `CCCCN(CCCC)C(=N)NN` [1 (g), 1-amino-3,3-n-butylguanidine hydroiodide] it is 34%; for `N=C(NN)NCc1cccc2ccccc12` [1 (h), 1-amino-3-(1-naphtylmethyl) guanidine hydroiodide] it is 51%.
In the case of `I.N=C(NN)NCc1cccc([N+](=O)[O-])c1` [1 (i), 1-amino-3-(3-nitrobenzyl) guanidine hydroiodide], the “Inhibitory effect (%)” value is reported as 57%.
With `CN(C(=N)NN)c1ccccc1.I` [1 (o), 1-amino-3-methyl-3-phenyl guanidine hydroiodide], the “Inhibitory effect (%)” value worked out at 54%.
The same measure, in the same setting: then `CN(N)C(=N)NCc1ccccc1.I` [1 (r), 1-amino-1-methyl-3-benzylguanidine hydroiodide], with 36%; and `Cl.N=C(NN)N1CCCC1` [1 (u), 1-pyrrolidinecarbohydrazide imide hydrochloride], with 43%; and `Cl.N=C(NN)N1CCOCC1` [1 (v), 4-morpholinecarbohydrazide imide hydrochloride], with 36%.
On the same count and under the same terms, then `N=C(N)N(N)CCCc1ccccc1` [2 (b), 1-amino-1-(3-phenylpropyl) guanidine], with 50%; and `N=C(N)N(N)CC1CCCC1` [2 (c), 1-amino-1-cyclopenthylmethyl guanidine], with 56%; and `I.N=C(NN)NCCc1ccccc1` [Example 1 (a), 1-amino-3-phenethylguanidine hydroiodide], with 72%.
Same read-out and setting: the figure for `I.N=C(NN)NCc1ccccc1` [Example 1, 1-amino-3-benzylguanidine hydroiodide] is 63%.

Staying with this assay, now noted: test compound 30 mM (example 2 and 2(a)); bovine serum albumin 100 mg/ml, glucose 200 mM, 0.5 M phosphate buffer pH 7.38, one week at 37°C; fluorescence ex 360 nm / em 450 nm.
Consider `N=C(N)N(N)Cc1ccccc1` [Example 2 (a), 1-amino-1-benzylguanidine], for which the “Inhibitory effect (%)” value was determined as 50%.
The same measure, in the same setting: the figure for `N=C(N)N(N)CCc1ccccc1` [Example 2, 1-Amino-1-phenethylguanidine] is 71%.

A further assay concerns Maillard reaction.
Experiment: not given
The following applies: Brownlee et al., Science, 232, 1629 (1986); cited from earlier work.
Regarding `N=C(N)NN` [aminoguanidine], the “inhibits Maillard reaction in vitro” value is listed as “inhibits”.

The test system of the next assay is advanced glycosylation end products in arterial wall connective tissue protein.
Experiment: not given
The following applies: administered to diabetic rats; Brownlee et al., Science, 232, 1629 (1986); cited from earlier work.
With `N=C(N)NN` [aminoguanidine], the “inhibits diabetes-induced accumulation of advanced glycosylation end products in arterial wall connective tissue protein” value is reported as “inhibits”.

The values are drawn from patent publication EP0339496A2, “Aminoguanidine derivatives” (ONO PHARMACEUTICAL CO., LTD., priority 1988, dated 1989).
